Values quoted from earlier work in patent EP0438873A1, “Inhibitor of ribonucleotide reductase of herpes viruses” (MERCK & CO. INC., priority 1989, dated 1991).
Where no end group is shown, it is not given here.

System: ribonucleotide reductase enzyme of herpes simplex virus
Details: from Dutia et al., Cohen et al., U.S. Patent No. 4,795,740

Row | Substance | inhibited in vitro the activity of this enzyme (HSV ribonucleotide reductase)
1 | Tyr Ala Gly Ala Val Val Asn Asp Leu (YAGAVVNDL; printed: Tyr Ala Gly Ala Val Val Asn Asp Leu) [the nonapeptide disclosed by Dutia et al. and Cohen et al] | inhibited
2 | YGAVVNDL [8-desalanine homolog of the nonapeptide, disclosed by Dutia et al] | inhibited
